Peptide text beside a SMILES is read from it.
Experiments:
[1] = tested on: BioMAP Diversity PLUS panel; assay: BioMAP Diversity PLUS panel of cell-based systems
NR1I2 = NR1I2 (Homo sapiens, UniProt O75469); assay: safety panel assay, NR1I2; format: binding; details: Table 2, NR1I2; accurate to ±20%
SLC18A2 = SLC18A2 (Homo sapiens, UniProt Q05940); assay: transporter inhibition, SLC18A2; format: biochemical; details: Table 2, SLC18A2; accurate to ±20%
ABCB11 = ABCB11 (Homo sapiens, UniProt O95342); assay: transporter inhibition, ABCB11; format: biochemical; details: Table 2, ABCB11; accurate to ±20%
ADRA1A = target: T1, ADRA1A (Homo sapiens, UniProt P35348); details: Table 2, ADRA1A; accurate to ±20%
T1 sequence (P35348 1-466): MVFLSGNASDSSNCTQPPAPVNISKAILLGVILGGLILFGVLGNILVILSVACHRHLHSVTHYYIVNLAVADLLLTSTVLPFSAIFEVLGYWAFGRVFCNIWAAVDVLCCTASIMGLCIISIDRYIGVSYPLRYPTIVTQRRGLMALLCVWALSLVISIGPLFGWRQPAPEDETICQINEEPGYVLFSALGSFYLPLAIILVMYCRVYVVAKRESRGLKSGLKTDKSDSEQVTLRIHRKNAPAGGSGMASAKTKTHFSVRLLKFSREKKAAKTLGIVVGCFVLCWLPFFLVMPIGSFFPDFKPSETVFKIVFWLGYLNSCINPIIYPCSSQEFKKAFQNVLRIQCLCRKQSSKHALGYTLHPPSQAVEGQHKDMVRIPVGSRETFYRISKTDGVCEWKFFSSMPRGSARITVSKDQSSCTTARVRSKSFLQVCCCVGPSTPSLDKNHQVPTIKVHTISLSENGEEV

TBXA2R = TBXA2R (Homo sapiens, UniProt P21731); assay: safety panel assay, TBXA2R; format: binding
Chain of TBXA2R (P21731 whole entry, species assumed): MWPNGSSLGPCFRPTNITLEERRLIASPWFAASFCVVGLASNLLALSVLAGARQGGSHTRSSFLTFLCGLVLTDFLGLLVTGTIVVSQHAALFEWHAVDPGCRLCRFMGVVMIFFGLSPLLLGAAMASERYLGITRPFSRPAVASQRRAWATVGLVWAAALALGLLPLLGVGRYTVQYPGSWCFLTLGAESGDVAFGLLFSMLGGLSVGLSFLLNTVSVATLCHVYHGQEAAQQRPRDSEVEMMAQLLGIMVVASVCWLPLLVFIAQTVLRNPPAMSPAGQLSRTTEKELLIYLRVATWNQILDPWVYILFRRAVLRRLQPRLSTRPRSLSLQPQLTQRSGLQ

[2] = Madin-Darby canine kidney permeability assay; details: dog, MDCK
[3] = Pharmacokinetics in rats after i.v. and oral administration; details: rat
CHRM1 = target: T2, CHRM1 (Homo sapiens, UniProt P11229)
T2 sequence (P11229 1-460): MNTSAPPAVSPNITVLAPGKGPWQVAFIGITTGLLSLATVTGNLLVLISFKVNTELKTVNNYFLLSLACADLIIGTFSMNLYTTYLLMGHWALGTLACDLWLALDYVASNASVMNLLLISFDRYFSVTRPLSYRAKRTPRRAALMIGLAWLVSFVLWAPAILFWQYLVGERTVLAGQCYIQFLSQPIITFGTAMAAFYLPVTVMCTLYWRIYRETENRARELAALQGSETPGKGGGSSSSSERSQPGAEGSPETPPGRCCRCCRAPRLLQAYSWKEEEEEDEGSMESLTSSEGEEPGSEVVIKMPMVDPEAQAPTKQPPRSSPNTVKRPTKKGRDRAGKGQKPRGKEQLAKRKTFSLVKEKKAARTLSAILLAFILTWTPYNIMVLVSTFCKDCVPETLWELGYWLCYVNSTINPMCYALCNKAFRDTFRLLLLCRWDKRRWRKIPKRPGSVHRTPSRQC

SLC6A2 = SLC6A2 (Homo sapiens, UniProt P23975); details: Table 2, SLC6A2; accurate to ±20%
SLC6A3 = SLC6A3 (Homo sapiens, UniProt Q01959); assay: safety panel assay, SLC6A3; format: biochemical; details: Table 2, SLC6A3; accurate to ±20%
SCN5A = SCN5A (Homo sapiens, UniProt Q14524); details: Table 2, SCN5A; accurate to ±20%
SLCO2B1 = target: T3, SLCO2B1 (Homo sapiens, UniProt O94956); assay: in vitro transporter inhibition, SLCO2B1; format: biochemical
T3 sequence (O94956 1-709): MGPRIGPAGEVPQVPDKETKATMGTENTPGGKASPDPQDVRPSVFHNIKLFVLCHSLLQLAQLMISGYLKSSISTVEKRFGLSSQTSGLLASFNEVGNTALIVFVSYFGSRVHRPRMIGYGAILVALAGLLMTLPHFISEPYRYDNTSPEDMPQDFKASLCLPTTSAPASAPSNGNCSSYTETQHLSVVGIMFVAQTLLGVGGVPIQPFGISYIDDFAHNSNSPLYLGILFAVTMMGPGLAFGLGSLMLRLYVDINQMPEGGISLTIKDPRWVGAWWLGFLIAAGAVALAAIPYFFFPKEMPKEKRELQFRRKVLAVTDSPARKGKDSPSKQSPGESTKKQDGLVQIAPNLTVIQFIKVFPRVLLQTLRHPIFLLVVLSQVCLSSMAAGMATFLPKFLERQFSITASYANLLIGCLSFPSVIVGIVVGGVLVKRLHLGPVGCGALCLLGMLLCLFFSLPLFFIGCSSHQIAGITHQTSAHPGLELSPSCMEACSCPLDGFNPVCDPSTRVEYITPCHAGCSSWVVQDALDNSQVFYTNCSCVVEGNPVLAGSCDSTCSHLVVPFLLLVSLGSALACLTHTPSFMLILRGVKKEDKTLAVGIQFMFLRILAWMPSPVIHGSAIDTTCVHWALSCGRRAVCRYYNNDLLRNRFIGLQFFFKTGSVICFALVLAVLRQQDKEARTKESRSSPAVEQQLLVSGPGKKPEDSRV

ADORA3 = ADORA3 (Homo sapiens, UniProt P0DMS8); details: Table 2, ADORA3; accurate to ±20%
PRG = PRG (Homo sapiens, UniProt P06401); details: Table 2, PRG; accurate to ±20%
Chain of PRG (P06401 whole entry): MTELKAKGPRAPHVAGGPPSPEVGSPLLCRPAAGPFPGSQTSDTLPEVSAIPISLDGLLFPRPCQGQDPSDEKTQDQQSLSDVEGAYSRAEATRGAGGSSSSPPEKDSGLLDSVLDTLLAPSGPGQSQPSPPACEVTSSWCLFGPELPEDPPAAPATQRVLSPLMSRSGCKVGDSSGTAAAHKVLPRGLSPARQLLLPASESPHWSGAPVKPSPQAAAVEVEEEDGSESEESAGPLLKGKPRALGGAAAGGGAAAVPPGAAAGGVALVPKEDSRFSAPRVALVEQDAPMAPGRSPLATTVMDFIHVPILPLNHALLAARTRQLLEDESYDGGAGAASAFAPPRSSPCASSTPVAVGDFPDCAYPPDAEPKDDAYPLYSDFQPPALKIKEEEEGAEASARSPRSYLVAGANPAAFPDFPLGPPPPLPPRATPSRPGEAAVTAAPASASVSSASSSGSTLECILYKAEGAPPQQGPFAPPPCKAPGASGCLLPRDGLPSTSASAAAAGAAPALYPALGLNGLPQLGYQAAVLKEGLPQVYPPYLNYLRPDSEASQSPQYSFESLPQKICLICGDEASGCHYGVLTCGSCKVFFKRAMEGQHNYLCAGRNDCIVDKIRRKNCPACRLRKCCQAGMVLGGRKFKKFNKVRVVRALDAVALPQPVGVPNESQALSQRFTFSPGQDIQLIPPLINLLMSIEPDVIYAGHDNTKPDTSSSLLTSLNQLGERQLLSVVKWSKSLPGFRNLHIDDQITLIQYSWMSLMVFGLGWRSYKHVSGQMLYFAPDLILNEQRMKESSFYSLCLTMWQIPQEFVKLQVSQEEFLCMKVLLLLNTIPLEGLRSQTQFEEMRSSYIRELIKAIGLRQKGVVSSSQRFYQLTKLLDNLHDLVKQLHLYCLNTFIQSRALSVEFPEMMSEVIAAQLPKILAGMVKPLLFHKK

HTR1A = HTR1A (Homo sapiens, UniProt P08908); assay: safety panel assay, HTR1A; format: binding; details: Table 2, HTR1A; accurate to ±20%
SLCO1B1 = target: T4, SLCO1B1 (Homo sapiens, UniProt Q9Y6L6); assay: in vitro transporter assay, SLCO1B1; details: Table 1, predicted target SLCO1B1
T4 sequence (Q9Y6L6 1-691): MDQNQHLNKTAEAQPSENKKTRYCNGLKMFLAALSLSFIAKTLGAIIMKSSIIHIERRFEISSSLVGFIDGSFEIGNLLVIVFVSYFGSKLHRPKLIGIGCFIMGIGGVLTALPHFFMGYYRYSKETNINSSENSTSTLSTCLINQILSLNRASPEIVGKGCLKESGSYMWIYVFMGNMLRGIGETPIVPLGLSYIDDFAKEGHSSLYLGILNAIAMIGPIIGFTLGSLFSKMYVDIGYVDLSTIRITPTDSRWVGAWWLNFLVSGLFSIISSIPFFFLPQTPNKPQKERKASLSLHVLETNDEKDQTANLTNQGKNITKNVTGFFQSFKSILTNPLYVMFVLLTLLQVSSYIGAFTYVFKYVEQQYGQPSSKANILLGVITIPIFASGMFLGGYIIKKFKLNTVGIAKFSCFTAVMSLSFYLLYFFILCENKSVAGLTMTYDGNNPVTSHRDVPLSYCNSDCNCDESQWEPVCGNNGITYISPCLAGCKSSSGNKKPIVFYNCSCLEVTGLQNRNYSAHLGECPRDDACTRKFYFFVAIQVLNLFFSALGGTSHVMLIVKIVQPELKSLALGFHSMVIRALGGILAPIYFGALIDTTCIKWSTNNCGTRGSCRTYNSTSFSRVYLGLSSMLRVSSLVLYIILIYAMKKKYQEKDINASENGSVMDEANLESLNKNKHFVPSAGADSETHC

DRD3 = DRD3 (Homo sapiens, UniProt P35462); details: Table 2, DRD3; accurate to ±20%
PDE4D = PDE4D (Homo sapiens, UniProt Q08499); assay: in vitro assay, PDE4D; format: biochemical; details: Table 2, PDE4D; accurate to ±20%
Chain of PDE4D (Q08499 whole entry): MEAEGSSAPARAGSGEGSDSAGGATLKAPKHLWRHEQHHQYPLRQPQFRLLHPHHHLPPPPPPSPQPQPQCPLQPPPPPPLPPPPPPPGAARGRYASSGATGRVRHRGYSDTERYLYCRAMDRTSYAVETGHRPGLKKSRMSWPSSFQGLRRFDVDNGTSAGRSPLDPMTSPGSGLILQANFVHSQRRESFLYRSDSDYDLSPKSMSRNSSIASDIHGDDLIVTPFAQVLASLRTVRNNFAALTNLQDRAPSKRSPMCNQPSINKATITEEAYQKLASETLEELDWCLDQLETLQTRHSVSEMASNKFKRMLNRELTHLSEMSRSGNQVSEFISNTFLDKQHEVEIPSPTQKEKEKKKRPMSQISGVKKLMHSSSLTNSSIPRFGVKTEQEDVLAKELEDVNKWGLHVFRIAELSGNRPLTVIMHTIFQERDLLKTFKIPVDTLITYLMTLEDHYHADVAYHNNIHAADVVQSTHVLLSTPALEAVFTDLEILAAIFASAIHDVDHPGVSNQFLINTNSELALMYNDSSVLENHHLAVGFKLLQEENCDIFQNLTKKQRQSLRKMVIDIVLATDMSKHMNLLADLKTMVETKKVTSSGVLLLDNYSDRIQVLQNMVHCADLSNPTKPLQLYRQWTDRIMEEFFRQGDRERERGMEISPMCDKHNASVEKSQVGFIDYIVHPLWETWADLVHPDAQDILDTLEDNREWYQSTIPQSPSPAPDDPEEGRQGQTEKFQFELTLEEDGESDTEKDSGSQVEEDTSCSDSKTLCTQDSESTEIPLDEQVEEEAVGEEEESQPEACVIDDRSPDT

PDE3A = PDE3A (Homo sapiens, UniProt Q14432); assay: safety panel assay, PDE3A; format: biochemical
Chain of PDE3A (Q14432 whole entry, species assumed): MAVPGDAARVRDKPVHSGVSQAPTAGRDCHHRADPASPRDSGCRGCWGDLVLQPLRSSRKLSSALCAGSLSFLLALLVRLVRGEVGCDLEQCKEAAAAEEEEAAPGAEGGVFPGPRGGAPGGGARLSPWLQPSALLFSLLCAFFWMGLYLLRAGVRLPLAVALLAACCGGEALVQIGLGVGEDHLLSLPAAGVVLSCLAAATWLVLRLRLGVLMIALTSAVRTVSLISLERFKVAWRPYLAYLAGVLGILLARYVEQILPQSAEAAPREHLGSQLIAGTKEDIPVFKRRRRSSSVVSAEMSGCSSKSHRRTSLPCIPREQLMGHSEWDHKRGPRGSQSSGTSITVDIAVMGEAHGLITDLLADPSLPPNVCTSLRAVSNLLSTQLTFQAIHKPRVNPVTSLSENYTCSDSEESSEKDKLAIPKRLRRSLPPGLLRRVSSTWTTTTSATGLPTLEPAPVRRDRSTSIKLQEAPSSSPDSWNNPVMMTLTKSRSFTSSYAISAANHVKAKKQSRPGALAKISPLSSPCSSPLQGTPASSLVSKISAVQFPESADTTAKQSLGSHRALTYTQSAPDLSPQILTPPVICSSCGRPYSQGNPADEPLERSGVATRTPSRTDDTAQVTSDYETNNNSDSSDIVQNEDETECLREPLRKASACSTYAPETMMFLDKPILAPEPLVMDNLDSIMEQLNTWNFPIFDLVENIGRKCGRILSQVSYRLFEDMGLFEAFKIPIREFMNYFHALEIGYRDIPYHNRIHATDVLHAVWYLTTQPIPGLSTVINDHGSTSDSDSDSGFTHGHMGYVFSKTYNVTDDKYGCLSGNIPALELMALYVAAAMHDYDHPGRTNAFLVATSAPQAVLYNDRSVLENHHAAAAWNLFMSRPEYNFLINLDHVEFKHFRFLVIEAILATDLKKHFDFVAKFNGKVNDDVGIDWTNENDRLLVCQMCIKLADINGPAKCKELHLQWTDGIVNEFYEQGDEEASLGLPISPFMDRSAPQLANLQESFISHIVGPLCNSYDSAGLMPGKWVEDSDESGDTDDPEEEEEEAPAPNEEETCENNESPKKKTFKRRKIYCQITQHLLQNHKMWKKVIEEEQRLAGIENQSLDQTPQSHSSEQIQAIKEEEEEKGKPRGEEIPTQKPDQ

PRMT1 = PRMT1 (Homo sapiens, UniProt Q99873); details: Table 1, predicted target PRMT1
[4] = not given; remark: listed apart in the source
ACHE = ACHE (Homo sapiens, UniProt P22303); details: Table 2, ACHE; accurate to ±20%
Chain of ACHE (P22303 32-614): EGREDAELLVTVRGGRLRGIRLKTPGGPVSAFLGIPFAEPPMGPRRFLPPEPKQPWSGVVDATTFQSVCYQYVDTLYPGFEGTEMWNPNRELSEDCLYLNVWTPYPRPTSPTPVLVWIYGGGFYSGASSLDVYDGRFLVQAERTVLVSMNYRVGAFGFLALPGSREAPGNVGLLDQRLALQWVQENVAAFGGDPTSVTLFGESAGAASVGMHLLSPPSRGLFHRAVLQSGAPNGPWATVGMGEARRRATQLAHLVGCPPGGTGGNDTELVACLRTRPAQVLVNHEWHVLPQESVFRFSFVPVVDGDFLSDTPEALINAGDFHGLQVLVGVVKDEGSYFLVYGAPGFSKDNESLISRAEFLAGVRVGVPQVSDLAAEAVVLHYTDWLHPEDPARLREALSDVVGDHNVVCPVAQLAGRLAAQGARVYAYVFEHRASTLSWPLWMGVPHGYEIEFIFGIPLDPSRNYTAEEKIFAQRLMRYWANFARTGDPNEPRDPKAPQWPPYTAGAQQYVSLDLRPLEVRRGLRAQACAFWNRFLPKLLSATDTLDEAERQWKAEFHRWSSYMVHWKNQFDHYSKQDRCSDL

[5] = rat, in vivo, 1 mg/kg

Chain of SLC18A2 (Q05940 whole entry, species assumed): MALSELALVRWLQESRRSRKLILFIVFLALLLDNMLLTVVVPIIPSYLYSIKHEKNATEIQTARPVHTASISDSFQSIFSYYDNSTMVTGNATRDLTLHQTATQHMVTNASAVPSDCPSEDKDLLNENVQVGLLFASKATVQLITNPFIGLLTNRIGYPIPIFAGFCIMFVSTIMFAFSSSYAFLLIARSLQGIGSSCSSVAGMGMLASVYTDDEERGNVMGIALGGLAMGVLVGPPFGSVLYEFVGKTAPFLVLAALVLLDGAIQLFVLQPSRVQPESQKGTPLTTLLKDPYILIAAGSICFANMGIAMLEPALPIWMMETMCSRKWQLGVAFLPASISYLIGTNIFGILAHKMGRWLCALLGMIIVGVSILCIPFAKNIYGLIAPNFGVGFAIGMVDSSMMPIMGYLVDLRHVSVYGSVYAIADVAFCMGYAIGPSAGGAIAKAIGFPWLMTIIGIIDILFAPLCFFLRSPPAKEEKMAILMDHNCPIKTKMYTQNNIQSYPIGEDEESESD
Chain of NR1I2 (O75469 whole entry, species assumed): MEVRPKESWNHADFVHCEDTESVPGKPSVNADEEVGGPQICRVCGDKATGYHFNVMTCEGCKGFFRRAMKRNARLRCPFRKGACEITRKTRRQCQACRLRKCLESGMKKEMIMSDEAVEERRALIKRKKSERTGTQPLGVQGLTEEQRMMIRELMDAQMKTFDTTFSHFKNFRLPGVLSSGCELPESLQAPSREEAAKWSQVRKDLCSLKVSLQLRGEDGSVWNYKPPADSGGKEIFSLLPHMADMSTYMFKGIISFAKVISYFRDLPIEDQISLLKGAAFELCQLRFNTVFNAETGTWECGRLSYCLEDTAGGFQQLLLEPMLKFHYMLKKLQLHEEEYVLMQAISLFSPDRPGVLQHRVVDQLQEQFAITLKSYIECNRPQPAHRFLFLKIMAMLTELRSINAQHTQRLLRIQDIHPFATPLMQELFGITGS

For `COC(=O)[C@H](Cc1ccccc1)NC(=O)[C@@H](N)CC(=O)O` [Aspartame] (HELM PEPTIDE1{D.F.[CO[*:1]]}$$$$V2.0), the “activity in the BioMAP cell-based systems” value ([1]; 1.1, 3.3, 10, 30 μM) was “no measurable activity” and the “Ki/IC50 Or EC50” value (NR1I2) was 13 µM.
For `O=C(O)c1ccccc1` [Benzoic acid], the “Ki/IC50 Or EC50” value (SLC18A2) was 18 µM and the “Ki/IC50 Or EC50” value (ABCB11) was 260 µM.
With `CCCCOC(=O)c1ccc(O)cc1` [Butylparaben] the “Ki/IC50 Or EC50” value (ADRA1A) was 16 µM, the IC50 (TBXA2R) was 19 µM and the “Ki/IC50 Or EC50” value (TBXA2R; Table 2, TBXA2R, accurate to ±20%) was 19 µM. For the same compound, the “Ki/IC50 Or EC50” value (SLC18A2) was 6.6 µM, the Papp [2] was 8.3 ×10⁻⁶ cm/s and the “MCP-1 (CCL2) and sPGE2 levels” value ([1]; peripheral blood mononuclear cells and venular endothelial cells) was “dose-dependently decreased”. For the same compound, the “concentrations in the blood” value ([3]; dosed at 10 mg/kg oral) was “negligible concentrations in the blood”, the Cmax ([3]; in vivo, po, 10 mg/kg) was less than 2.6 nM and the Ki/IC50 (CHRM1; Table 1, predicted target CHRM1) was 12 µM. The “Ki/IC50 Or EC50” value (SLC6A2) was 20 µM, the “Ki/IC50 Or EC50” value (SLC6A3) was 18 µM and the “Ki/IC50 Or EC50” value (SCN5A) was 33 µM. The “Ki/IC50 Or EC50” value (SLCO2B1; Table 2, SLCO2B1, accurate to ±20%) was 39 µM.
In the case of `CCCCCCCCCCCCOS(=O)(=O)[O-].[Na+]` [Sodium lauryl sulfate], the “Ki/IC50 Or EC50” value (ADRA1A) is reported as 15 µM, the “Ki/IC50 Or EC50” value (ADORA3) is reported as 15 µM and the “Ki/IC50 Or EC50” value (CHRM1; Table 2, CHRM1, accurate to ±20%) is reported as 29 µM. For the same compound, the “Ki/IC50 Or EC50” value (PRG) was 15 µM, the “Ki/IC50 Or EC50” value (HTR1A) was 15 µM and the Ki/IC50 (SLCO1B1) was 2.9 µM. The “Ki/IC50 Or EC50” value (DRD3) was 18 µM, the Ki/IC50 (SLCO2B1; Table 1, predicted target SLCO2B1) was 2.8 µM and the “Ki/IC50 Or EC50” value (PDE4D) was 23 µM.
In the case of FD&C Red No. 3, the “Ki/IC50 Or EC50” value (PDE3A; Table 2, PDE3A, accurate to ±20%) is reported as 0.092 µM, the IC50 (PDE3A; Table 4, target PDE3A) is reported as 0.092 µM and the “MDCK-LE Papp” value is reported as less than 0.5 ×10⁻⁶ cm/s. The Ki/IC50 (PRMT1) was 0.46 µM, the plasma protein binding [4] was 99% and the “Ki/IC50 Or EC50” value (ACHE) was 0.42 µM. For the same compound, the “%F” value [5] was 0.7% and the “Ki/IC50 Or EC50” value (PDE4D) was 0.32 µM.

Reference: publication PMC7960226 (Science (New York, N.Y.), 2020)
